According to patent US20260248936A1, “NOVEL LINKER COMPOUND AND LIGAND-DRUG CONJUGATE THEREFOR” (priority 2022, published 2026):
Numbered stars: 1 amine (or outer) side, 2 acyl side, 3 side chain; on linkers, the order of the positions; unused ones are H or OH. Square brackets hold non-standard residues; d marks the D form. Peptide text beside a SMILES is read from it. * marks the point of attachment. ξ: configuration not given here. X2 = C#CCC(OC(=O)*)c1ccc(O[C@@H]2O[C@H](CO)[C@H](O)[C@H](O)[C@H]2O)c2cc(C(=O)O)oc12; X3 = C#CCC(OC(=O)*)c1ccc(O[C@@H]2O[C@H](CO)[C@H](O)[C@H](O)[C@H]2O)c2cc(C(=O)O)sc12; X1 = O=C(O)CCc1cc2c(O[C@@H]3O[C@H](CO)[C@H](O)[C@H](O)[C@H]3O)ccc(COC(=O)*)c2s1; Dil(5ξ) = CCC(C)[C@@H]([C@@H](CC(=O)[*:2])OC)N(C)[*:1]; Dolaproine = CO[C@@H]([C@@H]1CCCN1)[C@@H](C)C(=O)O; NMeV = CN[C@H](C(=O)O)C(C)C; ξF = NC(Cc1ccccc1)C(=O)O

How the values were obtained:
[1] = Chemical stability in PBS buffer solution (pH 7.4); format: physicochemical; settings: PBS buffer solution pH 7.4, 37° C., HPLC; read-out: Chemical stability t1/2
Method: The compounds of the present invention (A-5, A-8, A-9, A-11, A-12, A-14, A-15, A-16, A-19, A-23, A-24, A-35 and A-36) were each dissolved in DMSO to a concentration of 10 mM and then mixed with a PBS buffer solution (pH 7.4) to prepare as a solution having a concentration of 500 μM (5% DMSO). MPS, used as a standard substance, was also prepared as a solution having a concentration of 500 μM in a PBS buffer solution. 420 μL of a PBS buffer solution and 140 μL of each of 500 μM compounds of the present invention and MPS were mixed to prepare a total of 700 μL of reaction solution. The reaction of the mixed solution was initiated in a constant temperature incubator at 37° C. The reaction solution was aliquoted in an amount of 70 μL at 0 minutes before the reaction and at certain times after the reaction, and the remaining compounds of the present invention or MPS or the liberated MMAF were quantitatively analyzed using the HPLC method. […] In addition, the remaining amount of Compound A-19 in a PBS buffer solution (pH 7.4) according to the incubation time is shown in FIG. 4.

[2] = Human plasma stability; format: in vitro ADME; settings: Method 2 (human plasma), 37° C., read-out: Plasma stability t1/2
Method: Method 2: Human Plasma Stability
(§1) The compounds of the present invention (A-8, A-9, A-14, A-19, A-35, A-36) and MPS, used as a standard substance, were each dissolved in DMSO and a PBS buffer solution to a concentration of 30 mM, and then mixed in human plasma (Biochemed, 752PR—SC-PMG) to a final concentration of 300 μM (final 1.0% DMSO) and 600 μM of the compounds and MPS, respectively. The reaction of the mixed solution in plasma was initiated in a constant temperature incubator at 37° C. Before the reaction and on certain days after the reaction, the above samples were aliquoted in an amount of 100 μL, and 200 μL of ACN was added to terminate the reaction, mixed, and then vortexed for about 1 minute, and then centrifuged at 4° C. for 15 minutes at 14,000 rpm to precipitate plasma proteins. Each supernatant obtained by centrifugation was collected and quantitatively analyzed using the HPLC method.
(§2) The results of measuring the plasma half-life of the compounds of the present invention using Methods 1 to 4 above are shown in Table 3.

[3] = Mouse plasma stability; format: in vitro ADME; settings: Method 1 (mouse plasma), 37° C., read-out: Plasma stability t1/2
Method: Method 1: Mouse Plasma Stability
as §1, with “(A-5,” for “(A-8,”, “mouse” for “human”, “029-APSC-PMG)” for “752PR—SC-PMG)”, “acetonitrile (ACN, Sigma, SA-271004-1L)” for “ACN”, “centrifuged (Beckman, B30150)” for “centrifuged”
as §2

[4] = Beagle dog plasma stability; format: in vitro ADME; settings: Method 4 (beagle dog plasma), 37° C., read-out: Plasma stability t1/2
Method: Method 4: Beagle Dog Plasma Stability
as §1, with “(A-19,” for “(A-8, A-9, A-14, A-19, A-35,”, “beagle dog” for “human”, “014-APSC-PMG)” for “752PR—SC-PMG)”
as §2

[5] = Rat plasma stability; format: in vitro ADME; settings: Method 3 (rat plasma), 37° C., read-out: Plasma stability t1/2
Method: Method 3: Rat Plasma Stability
as §1, with “(A-19,” for “(A-8, A-9, A-14, A-19, A-35,”, “rat” for “human”, “031-APSC-PMG)” for “752PR—SC-PMG)”
as §2

Row | SMILES | half-life at 100 µM [1] [h] | half-life at 300 µM [2] [h] | half-life at 300 µM [3] [h] | half-life at 300 µM [4] [h] | half-life at 300 µM [5] [h]
1 | C#CCC(OC(=O)N(C)[C@H](C(=O)N[C@H](C(=O)N(C)[C@@H](C(C)CC)[C@@H](CC(=O)N1CCC[C@H]1[C@H](OC)[C@@H](C)C(=O)NC(Cc1ccccc1)C(=O)O)OC)C(C)C)C(C)C)c1ccc(O[C@@H]2O[C@H](CO)[C@H](O)[C@H](O)[C@H]2O)c2cc(CCCC(=O)O)oc12 (some centres unmarked) [Compound A-16] | > 168 |  |  |  | 
2 | CCC(C)[C@@H]([C@@H](CC(=O)N1CCC[C@H]1[C@H](OC)[C@@H](C)C(=O)NC(Cc1ccccc1)C(=O)O)OC)N(C)C(=O)[C@@H](NC(=O)[C@H](C(C)C)N(C)C(=O)OCc1ccc(O[C@@H]2O[C@H](CO)[C@H](O)[C@H](O)[C@H]2O)c2cc(Cn3cc(COCCOCCOCCOC)nn3)sc12)C(C)C (some centres unmarked) [Compound A-8] | > 168 | > 168 |  |  | 
3 | C#CCC(OC(=O)N(C)[C@H](C(=O)N[C@H](C(=O)N(C)[C@@H](C(C)CC)[C@@H](CC(=O)N1CCC[C@H]1[C@H](OC)[C@@H](C)C(=O)NC(Cc1ccccc1)C(=O)O)OC)C(C)C)C(C)C)c1ccc(O[C@@H]2O[C@H](CO)[C@H](O)[C@H](O)[C@H]2O)c2cc(C(=O)O)sc12 (some centres unmarked) [Compound A-11] (X3-[NMeV]V[Dil(5ξ)][Dolaproine][ξF]-OH) | > 168 |  |  |  | 
4 | CCC(C)[C@@H]([C@@H](CC(=O)N1CCC[C@H]1[C@H](OC)[C@@H](C)C(=O)NC(Cc1ccccc1)C(=O)O)OC)N(C)C(=O)[C@@H](NC(=O)[C@H](C(C)C)N(C)C(=O)OCc1ccc(O[C@@H]2O[C@H](CO)[C@H](O)[C@H](O)[C@H]2O)c2cc(CCC(=O)O)sc12)C(C)C (some centres unmarked) [Compound A-5] (X1-[NMeV]V[Dil(5ξ)][Dolaproine][ξF]-OH) | > 168 |  | > 168 |  | 
5 | C#CCC(OC(=O)N(C)[C@H](C(=O)N[C@H](C(=O)N(C)[C@@H](C(C)CC)[C@@H](CC(=O)N1CCC[C@H]1[C@H](OC)[C@@H](C)C(=O)NC(Cc1ccccc1)C(=O)O)OC)C(C)C)C(C)C)c1ccc(O[C@@H]2O[C@H](CO)[C@H](O)[C@H](O)[C@H]2O)c2cc(COC(=O)N(C)[C@H](C(=O)N[C@H](C(=O)N(C)[C@@H](C(C)CC)[C@@H](CC(=O)N3CCC[C@H]3[C@H](OC)[C@@H](C)C(=O)NC(Cc3ccccc3)C(=O)O)OC)C(C)C)C(C)C)oc12 (some centres unmarked) [Compound A-35] | > 168 | > 168 | > 168 |  | 
6 | C#CCC(OC(=O)N(C)[C@H](C(=O)N[C@H](C(=O)N(C)[C@@H](C(C)CC)[C@@H](CC(=O)N1CCC[C@H]1[C@H](OC)[C@@H](C)C(=O)NC(Cc1ccccc1)C(=O)O)OC)C(C)C)C(C)C)c1ccc(O[C@@H]2O[C@H](CO)[C@H](O)[C@H](O)[C@H]2O)c2cc(CCC(=O)O)sc12 (some centres unmarked) [Compound A-12] | > 168 |  |  |  | 
7 | C#CCC(OC(=O)N(C)[C@H](C(=O)N[C@H](C(=O)N(C)[C@@H](C(C)CC)[C@@H](CC(=O)N1CCC[C@H]1[C@H](OC)[C@@H](C)C(=O)NC(Cc1ccccc1)C(=O)O)OC)C(C)C)C(C)C)c1ccc(O[C@@H]2O[C@H](CO)[C@H](O)[C@H](O)[C@H]2O)c2cc(C(=O)O)oc12 (some centres unmarked) [Compound A-15] (X2-[NMeV]V[Dil(5ξ)][Dolaproine][ξF]-OH) | > 168 |  |  |  | 
8 | CCC(C)[C@@H]([C@@H](CC(=O)N1CCC[C@H]1[C@H](OC)[C@@H](C)C(=O)NC(Cc1ccccc1)C(=O)O)OC)N(C)C(=O)[C@@H](NC(=O)[C@H](C(C)C)N(C)C(=O)OCc1cc2c(O[C@@H]3O[C@H](CO)[C@H](O)[C@H](O)[C@H]3O)ccc(COC(=O)N(C)[C@H](C(=O)N[C@H](C(=O)N(C)[C@@H](C(C)CC)[C@@H](CC(=O)N3CCC[C@H]3[C@H](OC)[C@@H](C)C(=O)NC(Cc3ccccc3)C(=O)O)OC)C(C)C)C(C)C)c2o1)C(C)C (some centres unmarked) [Compound A-24] | > 168 |  |  |  | 
9 | C#CCC(OC(=O)N(C)[C@H](C(=O)N[C@H](C(=O)N(C)[C@@H](C(C)CC)[C@@H](CC(=O)N1CCC[C@H]1[C@H](OC)[C@@H](C)C(=O)N[C@H](C)[C@@H](O)c1ccccc1)OC)C(C)C)C(C)C)c1ccc(O[C@@H]2O[C@H](C(=O)O)[C@H](O)[C@H](O)[C@H]2O)c2cc(CCC(=O)O)[se]c12 (some centres unmarked) [Compound A-36] | > 168 | > 168 | > 168 | > 168 | > 168
